Consider 29 substances from US20190225651A1, “COMPOUNDS FOR INDUCING TISSUE FORMATION AND USES THEREOF” (HISTIDE AG, priority 2015, published 2019).

Ends that are not written are not given here.

In the first assay the test system is osteoblast progenitors. Kind of assay: Osteogenic differentiation of osteoblast progenitors on peptide-coated materials (Osteopontin staining, Runx2 Q-PCR). The format is cell-based. As to conditions: 48 hours on coated apatite ceramics or type-I collagen sponge. The procedure: (§1) The cells were first fixed for 20 min with 4% paraformaldehyde/PBS at 4° C. After fixation, the cells were permeabilized in PBS containing 1% Triton X-100 for 15 min. Runx2, Osterix, Stro-1, Vinculin, Phalloidin, Osteopontin, Sox2, Sox9 antibodies were visualized by treating the cells with 1% (v/v) specific monoclonal antibodies for 1 hour at 37° C. Then the samples were incubated with Alexa Fluor® 568 or 647 (F(ab′)2 fragment of IgG(H+L)) during 30 min at room temperature. The cell nuclei were counterstained in 20 ng/mL DAPI for 10 min at room temperature.
Total RNA was extracted by using the RNeasy total RNA kit (Qiagen®) according to the manufacturer's instructions. Purified total RNA was used as a template in order to make cDNA by a reverse transcription reaction (Gibco BrI®) with random primers (Invitrogen®). The cDNA was then used as a template for a real-time PCR amplification in the presence of SYBR green reagents (Bio-Rad®) by using a thermocycler (iCycler, Biorad®). Data were analyzed with the iCycler IQ™® software and compared by the ΔΔCt method. Briefly, the mean Ct value of the target gene was normalized to its averaged Ct values of the housekeeping gene (HPRT) to give a ΔCt value, which was then normalized to a control sample to obtain a ΔΔCt value. The results were obtained from two series of experiments performed in a triplicate.
The effect of these GFR-binding compounds as defined herein (SEQ ID NO: 19 and 20) on the differentiation of osteoblast progenitors was evaluated. These osteoblast progenitors were seeded onto the apatite ceramics or on type-I collagen sponge that were both coated with osteogenic peptides. […] This was seen from Osteopentin immunofluorescence staining after cell fixation as described in the Methods section (FIG. 7).
An increase in the Runx2 gene expression after 24 hours of culture (FIG. 8a) was observed by using Quantitative Real Time Polymerase Chain Reaction as described in the Methods section.
Turning to “SEQ ID NO: 20: osteogenic cyclic GFR-binding compound of the sequence listing; sequence not printed (GTPGPSAISTLYLGGGGGGG; also: cyclic, ring type and places not given here)”, the “differentiation into mature osteoblasts” value is given as “differentiated into mature osteoblasts”.

Staying with this assay, now noted: versus native type-I collagen sponge or native apatite ceramics.
Consider “SEQ ID NO: 20: osteogenic cyclic GFR-binding compound of the sequence listing; sequence not printed (GTPGPSAISTLYLGGGGGGG; also: cyclic, ring type and places not given here)”, for which the “production of extracellular matrix proteins such as Osteopontin (OPN)” value is “produced extensive amounts of extracellular matrix proteins such as Osteopontin (OPN)”.

The test system of a further assay is Hair Follicle Stem Cells. Kind of assay: Loss of quiescence and activation of hair follicle stem cells (Sox2, BMP-6). The format is cell-based, Mouse.
Details: not given
The procedure:
Isolated Hair Follicle Stem Cells were cultured with and without GFR-binding compounds as defined herein (SEQ ID NO: 29 and 30). An increase in the Sox2 protein expression was observed illustrating the activation of these stem cells (FIG. 13a). In parallel, a decrease in the BMP-6 release in the cell culture medium was observed (FIG. 13b).
As for “SEQ ID NO: 30: cyclic GFR-binding compound activating hair follicle stem cells; sequence not printed (DENEKSSLSILFFDENEKGGGGGG; also: cyclic, ring type and places not given here)”, the “BMP-6 release in the cell culture medium” value is “decrease” and the Sox2 protein expression result is given as “increase”. On to “SEQ ID NO: 29: cyclic GFR-binding compound activating hair follicle stem cells; sequence not printed (DENKNSSLSILFFDENKNGGGGGG; also: cyclic, ring type and places not given here)”, for which the “BMP-6 release in the cell culture medium” value is reported as “decrease” and the Sox2 protein expression result is given as “increase”.

The subject of another assay is hMSCs. Kind of assay: Loss of stemness, STRO-1 immunostaining. Type of assay: cell-based, human. As to conditions: compound in solution in cell culture media. The procedure: as §1
For this type of quantification the freeware image analysis ImageJ® software was used. The raw image was first converted to an 8-bit file, and then the unsharp mask feature was used (settings 1:0.2) to remove the image background (rolling ball radius 10). After smoothing, the resulting image, which appears similar to the original photomicrograph but with minimal background, was then converted to a binary image by setting a threshold. Threshold values were determined empirically by selecting a setting, which gave the most accurate binary image for a subset of randomly selected photomicrographs. The cell area was determined by manual delineation on raw fluorescent images. Total contact area and mean contact area per cell were calculated by “analyse particules” in ImageJ®. A minimum of […] per condition were analyzed. Stro-1 expression was determined using this procedure.
hMSCs were cultured on conventional cell culture plastic plates with and without the presence in the cell culture media of different GFR-binding compounds as defined hereins (SEQ ID NO: 39 to 45) in solution. […] This was probed by Stro-1 immunostaining after cell fixation as described in the Methods section. The quantification of Stro-1 positive contact numbers and areas was performed as described in the Methods section. A minimum of 30 cells per condition were analyzed. One should note that it is commonly admitted that the expression of STRO-1 in a cell is indicative of a cell that is in a substantially non-differentiated state and the decrease of its expression of at least about 20% is indicative of a cell that has started a processus of differentiation but which may not result in the differentiation of the cell. A decrease of more than 50% would be indicative of the presence of a significant shift towards a differentiated state. A decrease of more than 70% would be indicative of the presence of a very important shift towards a differentiated state. A sustained decrease (e.g. for at least 96 h) of more than 50% or 70% would be indicative of the presence of an even more important shift towards a differentiated state.
Likewise, hMSCs were cultured on conventional cell culture plastic plates with and without the presence in the cell culture media of different GFR-binding compounds as defined herein (SEQ ID NO: 1581 to 1606) in solution. […] This strong decrease was also confirmed after 96 h.
Regarding “1605 (AAAAAAAAADENEKVVAASKASSVPEKMRPVQTRKIDDSSNVI; also: cyclic, closure not given here) [compound 1605]”, the “STRO-1 Expression (%) after 48 h” value came out at 30%.

Take “1583 (GGGGGGGGGDDSSNVIRVPSTSSAPTKMNAISMLYFDENEKVV; also: cyclic, closure not given here) [compound 1583]”: the “STRO-1 Expression (%) after 48 h” value turned out to be 34%. Consider “1606 (GGGGGGGGGFDNDENVVGIPEPSSAPVDMRPVQIRKIFDNDENVV; also: cyclic, closure not given here) [compound 1606]”, for which the “STRO-1 Expression (%) after 48 h” value amounted to 43%.

Consider “1584 (GGGGGGGGGDENEKVVGIPEPSSAPVDLKPLSTLYVDENEKVV; also: cyclic, closure not given here) [compound 1584]”, for which the “STRO-1 Expression (%) after 48 h” value is recorded as 31%. For “1581 (GGGGGGGGGDENEKVVNDEGLESVPEDLSSLSVLFFDENEKVV; also: cyclic, closure not given here) [compound 1581]”, the “STRO-1 Expression (%) after 48 h” value came to 33%. Still for that read-out and setting: the value for “1589 (GGGGGGGGGDDSSNVISTPPTSSSRVQLSAISMLYLDDSSNVI; also: cyclic, closure not given here) [compound 1589]” was 22%; that for “1587 (AAAAAAAAADENEKVVAASKASSSRVELRSVKIAKVDDSSNVI; also: cyclic, closure not given here) [compound 1587]” was 33%; that for “1594 (AAAAAAAAADAANNVVGIPEPSSVSQELSATSMLYYDAANNVV; also: cyclic, closure not given here) [compound 1594]” was 31%. Same read-out and setting: as for “1582 (GGGGGGGGGDDSSNVIRVPSTSSVPTGQSAISTLYLDDSSNVI; also: cyclic, closure not given here) [compound 1582]”, the figure is 29%; as for “1593 (GGGGGGGGGDENEKVVRVPSTSSTQVDLNAISVLYFDENEKVV; also: cyclic, closure not given here) [compound 1593]”, 32%. On the same count and under the same terms, the value for “1602 (AAAAAAAAADENEKVVRVPSTSSVPAEESNITVQIMDDSSNVI; also: cyclic, closure not given here) [compound 1602]” was 42%; that for “1591 (AAAAAAAAADAANNVVKIPKASSSRVRLSSLSTLFFDAANNVV; also: cyclic, closure not given here) [compound 1591]” was 21%. With “1603 (GGGGGGGGGFDNDENVVAASKASSVPQRLRSVKVAKVFDNDENVV; also: cyclic, closure not given here) [compound 1603]”, the “STRO-1 Expression (%) after 48 h” value is listed as 34%.

Regarding “1590 (GGGGGGGGGDENEKVVRVPSTSSTQVKMSAISMLYLDENEKVV; also: cyclic, closure not given here) [compound 1590]”, the “STRO-1 Expression (%) after 48 h” value came to 23%. Turning to “1601 (GGGGGGGGGFDNDENVVSTPPTSSTPTKMSNITTQIMFDNDENVV; also: cyclic, closure not given here) [compound 1601]”, the “STRO-1 Expression (%) after 48 h” value was 41%.

As for “1596 (GGGGGGGGGDENEKVVKIPKASSVSQQLEPISTLYLDENEKVV; also: cyclic, closure not given here) [compound 1596]”, the “STRO-1 Expression (%) after 48 h” value is on record as 19%. Still for that read-out and setting: as for “1586 (GGGGGGGGGDDSSNVIKIPKASSVPTGGSNITVQIMDDSSNVI; also: cyclic, closure not given here) [compound 1586]”, the figure is 31%; as for “1599 (GGGGGGGGGDDSSNVISTPPTSSVSQKMKPLSILYVDDSSNVI; also: cyclic, closure not given here) [compound 1599]”, 35%; as for “1597 (GGGGGGGGGDENEKVVSTPPTSSVPTEVSPINTLYFDENEKVV; also: cyclic, closure not given here) [compound 1597]”, 38%.

In the case of “1598 (AAAAAAAAADENEKVVKIPKASSVPTKMKPLSVLYVDDSSNVI; also: cyclic, closure not given here) [compound 1598]”, the “STRO-1 Expression (%) after 48 h” value is 37%. For “1585 (AAAAAAAAADENEKVVAASKASSVPQEEEPLPMVYYDAANNVV; also: cyclic, closure not given here) [compound 1585]”, the “STRO-1 Expression (%) after 48 h” value is 27%.

In the case of “1600 (GGGGGGGGGFDNDENVVRVPSTSSVPEKMEPLTMLYYFDNDENVV; also: cyclic, closure not given here) [compound 1600]”, the “STRO-1 Expression (%) after 48 h” value was determined as 29%. In the case of “1595 (GGGGGGGGGDDSSNVIGIPEPSSAPTRLEPISMLYLDENEKVV; also: cyclic, closure not given here) [compound 1595]”, the “STRO-1 Expression (%) after 48 h” value was 27%. Same read-out and setting: as for “1588 (GGGGGGGGGDENEKVVKIPKASSTQVRLRPVQIRKIDAANNVV; also: cyclic, closure not given here) [compound 1588]”, the figure is 30%; as for “1592 (GGGGGGGGGDDSSNVIAASKASSTPTDLNAISTLYFDDSSNVI; also: cyclic, closure not given here) [compound 1592]”, 30%. Turning to “1604 (AAAAAAAAADAANNVVKIPKASSTQVRLRSVKTAKVDAANNVV; also: cyclic, closure not given here) [compound 1604]”, the “STRO-1 Expression (%) after 48 h” value is 35%.
